In EP4800012A1, “COMPOUND ACTING AS PARP7 INHIBITOR” (Dovetree Medicines Unus, Inc., priority 2023, dated 2025):
pIC50: −log10 of the molar value. Read-outs that look alike come from different tables or passages of the source.

How the values were obtained:
PARP1 = PARP1 (Homo sapiens, UniProt P09874); experiment: PARP1 in vitro enzyme activity inhibition (chemiluminescence assay); format: biochemical; conditions: 5 nM of PARP1 solution, method of test example 1; read-out: PARP1 activity inhibition IC50
Experimental: (§1) Following the method in test example 1, the IC50 value of the inhibition of each compound on PARP7 activity were detected and obtained. Reference was made to the method in test example 1, except that the 6.25 nM of PARP7 solution in the ribosylation reaction step was replaced with a 5 nM of PARP1 solution or a 5 nM of PARP2. Similar to the 6.25 nM of PARP7 solution, the 5 nM of PARP1 solution and 5 nM of PARP2 solution were also formulated and obtained by using 1× Assay buffer.

PARP7 [1] = molecular target: T1, PARP7 (Homo sapiens, UniProt Q7Z3E1); experiment: Inhibition of the compound on PARP7 protein activity (ADP-ribosylation, chemiluminescence); format: biochemical; conditions: Histone H1 coated plate, Biotin-Labeled NAD+, 2 h at room temperature, chemiluminescence; read-out: PARP7 activity inhibition IC50
T1 construct: purchased BPS 80527
T1 sequence (Q7Z3E1 1-657): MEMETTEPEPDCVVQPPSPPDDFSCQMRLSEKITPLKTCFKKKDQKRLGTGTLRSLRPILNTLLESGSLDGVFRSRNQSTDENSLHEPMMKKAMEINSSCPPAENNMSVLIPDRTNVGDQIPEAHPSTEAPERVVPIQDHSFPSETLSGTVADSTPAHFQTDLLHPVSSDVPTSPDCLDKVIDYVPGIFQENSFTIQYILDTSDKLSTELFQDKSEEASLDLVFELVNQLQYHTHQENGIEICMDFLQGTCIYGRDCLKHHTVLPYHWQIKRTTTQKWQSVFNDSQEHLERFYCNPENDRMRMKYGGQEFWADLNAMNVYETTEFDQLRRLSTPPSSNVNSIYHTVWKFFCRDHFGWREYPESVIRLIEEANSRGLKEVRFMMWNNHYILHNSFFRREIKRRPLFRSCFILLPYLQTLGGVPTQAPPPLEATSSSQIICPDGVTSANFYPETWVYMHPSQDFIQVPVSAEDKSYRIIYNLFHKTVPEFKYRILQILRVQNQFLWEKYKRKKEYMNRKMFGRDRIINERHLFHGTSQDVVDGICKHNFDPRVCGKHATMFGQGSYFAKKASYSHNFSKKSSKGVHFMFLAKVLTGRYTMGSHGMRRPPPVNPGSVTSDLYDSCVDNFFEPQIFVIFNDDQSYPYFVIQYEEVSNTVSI

PARP2 = PARP2 (Homo sapiens, UniProt Q9UGN5); experiment: PARP2 in vitro enzyme activity inhibition (chemiluminescence assay); format: biochemical; conditions: 5 nM of PARP2, method of test example 1; read-out: PARP2 activity inhibition IC50
Experimental: as §1

PARP7 [2] = molecular target: T1, PARP7; experiment: PARP7 in vitro enzyme activity inhibition (chemiluminescence assay, selectivity test); format: biochemical; conditions: 6.25 nM of PARP7 solution, method of test example 1; read-out: PARP7 activity inhibition IC50
Experimental: as §1

NCI-H1373 cells = experiment: Inhibition on NCI-H1373 cell proliferation (Cell-Titer-Glo); format: cell-based; conditions: Homo sapiens, read-out: NCI-H1373 cell proliferation inhibition IC50
PARP7 [3] = molecular target: T1, PARP7; experiment: PARP7 TR-FRET binding inhibition (displacement of probe RBN011147); conditions: TR-FRET, Biotin-labeled probe RBN011147; read-out: PARP7 binding inhibition IC50
Experimental: The ability of the compound to substitute the probe RBN011147 (Wigle et al., 2020, Cell Chemical Biology 27, 877-887) was tested by a TR-FRET method, and IC50 was calculated to evaluate the binding ability of the compound to PARP7. […]

[4] = 144 h, NCI-H1373 cells, incubation for 6 days, Cell-Titer-Glo

Chain of PARP1 (P09874 whole entry, species assumed): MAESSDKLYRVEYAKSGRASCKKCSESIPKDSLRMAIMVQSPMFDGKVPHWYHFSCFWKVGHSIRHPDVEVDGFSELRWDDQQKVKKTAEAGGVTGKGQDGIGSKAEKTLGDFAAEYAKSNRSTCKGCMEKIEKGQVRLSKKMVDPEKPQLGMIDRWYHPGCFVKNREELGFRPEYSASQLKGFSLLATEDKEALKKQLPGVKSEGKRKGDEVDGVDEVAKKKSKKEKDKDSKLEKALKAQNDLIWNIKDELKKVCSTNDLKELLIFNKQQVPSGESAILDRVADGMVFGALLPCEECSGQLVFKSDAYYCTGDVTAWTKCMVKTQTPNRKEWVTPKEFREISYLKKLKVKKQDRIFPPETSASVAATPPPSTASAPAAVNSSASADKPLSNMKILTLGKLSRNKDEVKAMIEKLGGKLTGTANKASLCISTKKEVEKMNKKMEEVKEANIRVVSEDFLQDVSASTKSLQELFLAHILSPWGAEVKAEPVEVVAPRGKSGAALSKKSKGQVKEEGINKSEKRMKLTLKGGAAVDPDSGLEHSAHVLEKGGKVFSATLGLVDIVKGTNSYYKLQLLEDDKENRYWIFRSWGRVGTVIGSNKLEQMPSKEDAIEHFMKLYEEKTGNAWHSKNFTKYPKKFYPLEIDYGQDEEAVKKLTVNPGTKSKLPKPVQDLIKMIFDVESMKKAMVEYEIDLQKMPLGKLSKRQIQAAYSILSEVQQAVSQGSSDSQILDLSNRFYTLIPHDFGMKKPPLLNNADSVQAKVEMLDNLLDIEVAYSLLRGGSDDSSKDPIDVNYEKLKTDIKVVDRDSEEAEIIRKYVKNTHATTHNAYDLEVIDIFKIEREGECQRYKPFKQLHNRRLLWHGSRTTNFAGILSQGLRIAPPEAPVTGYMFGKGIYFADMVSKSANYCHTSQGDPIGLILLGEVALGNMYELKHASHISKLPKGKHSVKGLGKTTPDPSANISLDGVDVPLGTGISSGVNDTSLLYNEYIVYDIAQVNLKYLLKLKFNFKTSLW
Chain of PARP2 (Q9UGN5 whole entry, species assumed): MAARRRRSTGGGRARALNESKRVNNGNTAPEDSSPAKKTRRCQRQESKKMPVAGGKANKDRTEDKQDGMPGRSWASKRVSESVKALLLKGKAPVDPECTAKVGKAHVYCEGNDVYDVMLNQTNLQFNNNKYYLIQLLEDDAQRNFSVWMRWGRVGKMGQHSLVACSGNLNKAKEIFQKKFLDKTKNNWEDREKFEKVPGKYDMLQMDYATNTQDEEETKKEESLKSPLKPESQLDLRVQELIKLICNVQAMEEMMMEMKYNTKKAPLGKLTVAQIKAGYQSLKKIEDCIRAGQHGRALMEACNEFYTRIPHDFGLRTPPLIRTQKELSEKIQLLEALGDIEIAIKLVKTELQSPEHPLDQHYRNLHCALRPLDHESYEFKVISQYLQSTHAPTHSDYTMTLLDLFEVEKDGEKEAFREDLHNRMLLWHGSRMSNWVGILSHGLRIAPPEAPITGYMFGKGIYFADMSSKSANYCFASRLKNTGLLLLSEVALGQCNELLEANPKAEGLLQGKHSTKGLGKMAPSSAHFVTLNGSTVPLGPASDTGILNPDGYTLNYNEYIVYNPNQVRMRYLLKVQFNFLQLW

SMILES	pIC50 (PARP1)	pIC50 (PARP7 [1])	pIC50 (PARP2)	pIC50 (PARP7 [2])	pIC50 (NCI-H1373 cells; [4])	pIC50 (PARP7 [3])	pIC50 (NCI-H1373 cells; NCI-H1373, 144 h)
CC1(C)CN(C(=O)C(CCCNC(=O)c2cnc(-c3ncc(C(F)(F)F)cn3)cn2)Nc2cn[nH]c(=O)c2C(F)(F)F)C1 (stereo not drawn) [Example 174]	7.00 to 7.52	8.00 to 8.52	8.00 to 8.52	8.00 to 8.52	< 5.52	7.52 to 8.00	–
CC1(C)CN(C(=O)C(CCCNC(=O)c2ccc(-c3ncc(C(F)(F)F)s3)cc2)Nc2cn[nH]c(=O)c2C(F)(F)F)C1 (stereo not drawn) [Example 85]	7.00 to 7.52	> 8.52	8.00 to 8.52	> 8.52	6.00 to 6.52	> 8.00	–
O=C(NCCCC(Nc1cn[nH]c(=O)c1C(F)(F)F)C(=O)NC1CCCOC1)c1ccc(-c2ncc(C(F)(F)F)s2)cc1 (stereo not drawn) [Example 235]	8.00 to 8.52	> 8.52	8.00 to 8.52	> 8.52	6.00 to 6.52	> 8.00	–
CC(CCCNC(=O)c1cnn(-c2ncc(C(F)(F)F)cn2)c1)Nc1cn[nH]c(=O)c1C(F)(F)F (stereo not drawn) [Example 38]	–	> 8.52	–	–	< 5.52	> 8.00	–
CC#Cc1cnc(-c2ccc(C(=O)NCCCC(C)Nc3cn[nH]c(=O)c3C(F)(F)F)cc2)s1 (stereo not drawn) [Example 42]	–	> 8.52	–	–	< 5.52	7.00 to 7.52	–
CC(CCCNC(=O)c1ccc(-c2cc(-c3cccnc3)sn2)cc1)Nc1cn[nH]c(=O)c1C(F)(F)F (stereo not drawn) [Example 18]	–	> 8.52	–	–	6.00 to 6.52	> 8.00	–
CC(CCCNC(=O)c1cnc(-c2ncc(C(F)F)s2)cn1)Nc1cc[nH]c(=O)c1C(F)(F)F (stereo not drawn) [Example 32]	–	> 8.52	–	–	< 5.52	7.52 to 8.00	–
Cc1nc(-c2ccc(C(=O)NCCCC(C)Nc3cn[nH]c(=O)c3C(F)(F)F)cc2)sc1C (stereo not drawn) [Example 189]	–	> 8.52	–	–	5.52 to 6.00	7.00 to 7.52	–
CC(CCCNC(=O)c1ccc(-c2ncc(N3CCOCC3)cn2)cc1)Nc1cn[nH]c(=O)c1C(F)(F)F (stereo not drawn) [Example 14]	–	> 8.52	–	–	< 5.52	> 8.00	–
Cc1cc(-c2ccc(C(=O)NCCCC(C)Nc3cn[nH]c(=O)c3C(F)(F)F)cc2)ncc1C#N (stereo not drawn) [Example 68]	–	> 8.52	–	–	6.00 to 6.52	> 8.00	–
CC(CCCNC(=O)c1ncc(-c2ncc(C(F)F)s2)cc1F)Nc1cn[nH]c(=O)c1C(F)(F)F (stereo not drawn) [Example 74]	–	> 8.52	–	–	< 5.52	> 8.00	–
CC(CCCNC(=O)c1ccc(-c2nn(C)cc2F)cc1)Nc1cn[nH]c(=O)c1C(F)(F)F (stereo not drawn) [Example 192]	–	8.00 to 8.52	–	–	< 5.52	7.00 to 7.52	–
CC(CCCN1C(=O)c2ccc(-c3ncc(C(F)(F)F)cn3)cc2C1=O)Nc1cn[nH]c(=O)c1C(F)(F)F (stereo not drawn) [Example 9]	–	> 8.52	–	–	< 5.52	> 8.00	–
CC(CCCNC(=O)c1ccc(-c2cc(C(F)(F)F)n(C)n2)cc1)Nc1cn[nH]c(=O)c1C(F)(F)F (stereo not drawn) [Example 185]	–	> 8.52	–	–	6.00 to 6.52	7.00 to 7.52	–
CC(CCCNC(=O)c1ccc(-c2ncc(CC3CCCC3)s2)cc1)Nc1cn[nH]c(=O)c1C(F)(F)F (stereo not drawn) [Example 43]	–	> 8.52	–	–	> 6.52	> 8.00	–
CC(CCCNC(=O)c1ccc(-n2cc(C(F)(F)F)cn2)cc1)Nc1cn[nH]c(=O)c1C(F)(F)F (stereo not drawn) [Example 61]	–	> 8.52	–	–	> 6.52	> 8.00	–

SMILES	pIC50 (PARP1)	pIC50 (PARP7 [1])	pIC50 (PARP2)	pIC50 (PARP7 [2])	pIC50 (NCI-H1373 cells; [4])	pIC50 (PARP7 [3])	pIC50 (NCI-H1373 cells; NCI-H1373, 144 h)
CC(CCCNC(=O)c1ncc(-n2cc(C(F)(F)F)cn2)cc1F)Nc1cn[nH]c(=O)c1C(F)(F)F (stereo not drawn) [Example 183]	–	> 8.52	–	–	6.00 to 6.52	> 8.00	–
CC(CCCNC(=O)c1cnc(-c2ncc(C(F)(F)F)s2)cn1)Nc1cn[nH]c(=O)c1C(F)(F)F (stereo not drawn) [Example 26]	–	> 8.52	–	–	5.52 to 6.00	> 8.00	–
Cc1c(CCC(=O)Nc2ncc(-c3ncc(C(F)(F)F)cn3)cc2F)c[nH]c(=O)c1C(F)(F)F [Example 76]	–	8.00 to 8.52	–	–	< 5.52	7.52 to 8.00	–
CC(CCCNC(=O)c1ccc(-c2ccc(=O)n(C)n2)cc1)Nc1cn[nH]c(=O)c1C(F)(F)F (stereo not drawn) [Example 64]	–	7.52 to 8.00	–	–	< 5.52	< 7.00	–
CC(CCCNC(=O)c1ccc(-c2ncc(N(C)C)cn2)cc1)Nc1cn[nH]c(=O)c1C(F)(F)F (stereo not drawn) [Example 63]	–	> 8.52	–	–	> 6.52	> 8.00	–
CC(CCCNC(=O)c1ccc(-c2ncc(C(F)F)s2)cn1)Nc1cc[nH]c(=O)c1C(F)(F)F (stereo not drawn) [Example 29]	–	> 8.52	–	–	< 5.52	7.52 to 8.00	–
CC(CCCNC(=O)c1ccc(-c2cc(C(F)(F)F)on2)cc1)Nc1cn[nH]c(=O)c1C(F)(F)F (stereo not drawn) [Example 79]	–	8.00 to 8.52	–	–	< 5.52	> 8.00	–
CC(CCCNC(=O)c1ccc(-c2cscn2)cc1F)Nc1cn[nH]c(=O)c1C(F)(F)F (stereo not drawn) [Example 179]	–	> 8.52	–	–	< 5.52	7.52 to 8.00	–
CC(CCCNC(=O)c1ccc(-c2ncc(CC3CC3)s2)cc1)Nc1cn[nH]c(=O)c1C(F)(F)F (stereo not drawn) [Example 44]	–	> 8.52	–	–	5.52 to 6.00	> 8.00	–
CC(CCCNC(=O)c1cccc2c1CCN2c1ncc(C(F)(F)F)cn1)Nc1cn[nH]c(=O)c1C(F)(F)F (stereo not drawn) [Example 5]	–	> 8.52	–	–	< 5.52	7.52 to 8.00	–
COc1cnc(-c2ccc(C(=O)NCCCC(C)Nc3cn[nH]c(=O)c3C(F)(F)F)c(F)c2)s1 (stereo not drawn) [Example 21]	–	> 8.52	–	–	5.52 to 6.00	> 8.00	–
CC(CCCNC(=O)c1ccc(-c2ncc(N(C)C)s2)cc1)Nc1cn[nH]c(=O)c1C(F)(F)F (stereo not drawn) [Example 57]	–	8.00 to 8.52	–	–	–	> 8.00	5.52 to 6.00
CC(CCCNC(=O)c1ccc(-c2ncc(N3CC(F)C3)s2)cc1)Nc1cn[nH]c(=O)c1C(F)(F)F (stereo not drawn) [Example 16]	–	8.00 to 8.52	–	–	< 5.52	7.52 to 8.00	–
CC(CCCNC(=O)c1ccc(-c2ncc(C(F)(F)F)s2)cc1F)Nc1cn[nH]c(=O)c1C(F)(F)F (stereo not drawn) [Example 77]	–	> 8.52	–	–	> 6.52	> 8.00	–
CC(CCCNC(=O)c1ccc(-c2ncc(C(F)(F)F)cn2)cc1)Nc1cn[nH]c(=O)c1C(F)(F)F (stereo not drawn) [Example 3]	–	> 8.52	–	–	6.00 to 6.52	> 8.00	–
CC(CCCNC(=O)c1ncc(-c2ncc(C(F)(F)F)s2)cc1F)Nc1cn[nH]c(=O)c1C(F)(F)F (stereo not drawn) [Example 75]	–	> 8.52	–	–	> 6.52	> 8.00	–
